In PubChem BioAssay AID328 (DTP/NCI, 2004) one finds T/C data, which are given here for 17 molecules.

The assay has as its system BDF1 mice, P388 leukemia ip, median survival T/C. The experiment in a line: NCI In Vivo Anticancer Drug Screen. Data for tumor model P388 Leukemia (intraperitoneal) in B6D2F1 (BDF1) mice. The conditions noted are these: endpoint: median survival time, higher = longer survival. An outline of the steps: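 Antitumour effect was judged in vivo: survival in drug-treated mice, normalised to that of vehicle-dosed controls, gives the reported T/C.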

Setting [1] is: dose: 100.0 mg/kg/injection, schedule: Q01DX001 (ip), vehicle: Klucel (hydroxypropylcellulose) (HPC).
Setting [2] is: dose: 200.0 mg/kg/injection, schedule: Q01DX001 (ip), vehicle: Klucel (hydroxypropylcellulose) (HPC).
Where [3] appears, read: dose: 100.0 mg/kg/injection, schedule: Q01DX009 (ip), vehicle: Klucel (hydroxypropylcellulose) (HPC).
[4] abbreviates: dose: 100.0 mg/kg/injection, schedule: Q04DX003 (ip), vehicle: Klucel (hydroxypropylcellulose) (HPC).
Where [5] appears, read: dose: 400.0 mg/kg/injection, schedule: Q04DX003 (ip), vehicle: Klucel (hydroxypropylcellulose) (HPC).
Setting [6] is: dose: 100.0 mg/kg/injection, schedule: Q04DX003 (ip), vehicle: saline with Tween-80.
The mark [7] stands for this setting: dose: 25.0 mg/kg/injection, schedule: Q04DX003 (ip), vehicle: saline with Tween-80.
The mark [8] stands for this setting: dose: 200.0 mg/kg/injection, schedule: Q01DX009 (ip), vehicle: Klucel (hydroxypropylcellulose) (HPC).

Values joined by “and” are separate entries in the source; they are usually repeats but may differ in a detail not shown here. Equal entries are not always repeated. Inconclusive results and toxic doses are left out.

Consider `O=C(NCCNC(=O)c1cccc([N+](=O)[O-])c1O)c1cccc([N+](=O)[O-])c1O`, for which the T/C runs as follows: (dose: 50.0 mg/kg/injection, schedule: Q01DX001 (ip), vehicle: Klucel (hydroxypropylcellulose) (HPC)) 100 % of control; under setting [1], 100 % of control; under setting [2], 104 % of control.
As to `O=C(CCCCN1CCc2[nH]c3ccc(F)cc3c2C1)c1ccc(F)cc1`, the T/C is, setting by setting: under setting [1], 116 % of control; under setting [2], 100 % of control.
With `CC1=CC2=NC(=O)C(c3ccccc3)C(=O)N2C=C1` (configuration not stated), the T/C is, setting by setting: (dose: 25.0 mg/kg/injection, schedule: Q01DX009 (ip), vehicle: Klucel (hydroxypropylcellulose) (HPC)) 100 % of control; (dose: 25.0 mg/kg/injection, schedule: Q04DX003 (ip), vehicle: Klucel (hydroxypropylcellulose) (HPC)) 100 % of control; (dose: 50.0 mg/kg/injection, schedule: Q01DX009 (ip), vehicle: Klucel (hydroxypropylcellulose) (HPC)) 105 % of control; (dose: 50.0 mg/kg/injection, schedule: Q04DX003 (ip), vehicle: Klucel (hydroxypropylcellulose) (HPC)) 100 % of control; under setting [3], 115 % of control; under setting [4], 100 % of control. Also, the T/C under setting [5] is 88 % of control.
On to `O=[N+]([O-])/C=C/c1ccccc1Cl`, for which the T/C (dose: 2.2 mg/kg/injection, schedule: Q01DX009 (ip), vehicle: other) was 110 % of control; the T/C (dose: 3.3 mg/kg/injection, schedule: Q01DX009 (ip), vehicle: other) was 119 % of control; the T/C (dose: 5.0 mg/kg/injection, schedule: Q01DX009 (ip), vehicle: other) is 122 % of control; the T/C (dose: 6.6 mg/kg/injection, schedule: Q04DX003 (ip), vehicle: other) is 109 % of control; the T/C (dose: 7.5 mg/kg/injection, schedule: Q01DX009 (ip), vehicle: other) is 115 % of control; the T/C (dose: 10.0 mg/kg/injection, schedule: Q04DX003 (ip), vehicle: other) is 104 % of control. For the same molecule, the T/C is, setting by setting: (dose: 37.5 mg/kg/injection, schedule: Q01DX009 (sc), vehicle: olive oil, sesame oil, peanut oil) 100 % of control; (dose: 37.5 mg/kg/injection, schedule: Q04DX003 (sc), vehicle: olive oil, sesame oil, peanut oil) 95 % of control; (dose: 75.0 mg/kg/injection, schedule: Q01DX009 (sc), vehicle: olive oil, sesame oil, peanut oil) 109 % of control; (dose: 75.0 mg/kg/injection, schedule: Q04DX003 (sc), vehicle: olive oil, sesame oil, peanut oil) 90 % of control; (dose: 150.0 mg/kg/injection, schedule: Q01DX009 (sc), vehicle: olive oil, sesame oil, peanut oil) 100 % of control; (dose: 150.0 mg/kg/injection, schedule: Q04DX003 (sc), vehicle: olive oil, sesame oil, peanut oil) 104 % of control.
Regarding `O=C(O)CCSc1ncnc2nc[nH]c12`, the T/C was 104 % of control (dose: 12.5 mg/kg/injection, schedule: Q01DX009 (ip), vehicle: saline with Tween-80); 109 % of control (dose: 25.0 mg/kg/injection, schedule: Q01DX009 (ip), vehicle: saline with Tween-80); 109 % of control (dose: 50.0 mg/kg/injection, schedule: Q01DX009 (ip), vehicle: saline with Tween-80); 100 % of control under setting [6]; 113 % of control (dose: 200.0 mg/kg/injection, schedule: Q04DX003 (ip), vehicle: saline with Tween-80); 104 % of control (dose: 400.0 mg/kg/injection, schedule: Q04DX003 (ip), vehicle: saline with Tween-80).
Regarding `CC1CN1P(=O)(Oc1ccccc1)N1CC1C` (configuration not stated), the T/C (dose: 65.0 mg/kg/injection, schedule: Q01DX009 (ip), vehicle: saline) is 104 % of control.
For the molecule `CC(=O)N=C1CCCC1C#N` (configuration not stated), the T/C is, setting by setting: under setting [1], 104 % of control; under setting [2], 100 % of control; (dose: 400.0 mg/kg/injection, schedule: Q01DX001 (ip), vehicle: Klucel (hydroxypropylcellulose) (HPC)) 95 % of control.
For `CN(C)c1ccc(/C=C/c2ccc3ccccc3n2)cc1`, the T/C was 86 % of control under setting [7]; 86 % of control (dose: 50.0 mg/kg/injection, schedule: Q04DX003 (ip), vehicle: saline with Tween-80); 86 % of control under setting [6].
Take `COc1c2c(cc3oc4ccccc4c(=O)c13)CCCC2=O`: the T/C is, setting by setting: (dose: 50.0 mg/kg/injection, schedule: Q01DX005 (ip), vehicle: Klucel (hydroxypropylcellulose) (HPC)) 90 % of control; (dose: 200.0 mg/kg/injection, schedule: Q01DX005 (ip), vehicle: Klucel (hydroxypropylcellulose) (HPC)) 88 % of control.
Consider `NC1(C(=O)O)CCCc2ccc(N(CCCl)CCCl)cc21` (configuration not stated), for which the T/C by setting is: (dose: 16.5 mg/kg/injection, schedule: Q04DX003 (ip), vehicle: saline with Tween-80) 263 % of control and 272 % of control; under setting [7], 272 % of control; (dose: 37.5 mg/kg/injection, schedule: Q04DX003 (ip), vehicle: saline with Tween-80) 177 % of control.
Take `CCCCCCCCCCCCC(C(=O)O)C1C=CCC1` (configuration not stated): the T/C reads like this: (dose: 100.0 mg/kg/injection, schedule: Q01DX001 (ip), vehicle: other) 100 % of control; (dose: 200.0 mg/kg/injection, schedule: Q01DX001 (ip), vehicle: other) 100 % of control; (dose: 400.0 mg/kg/injection, schedule: Q01DX001 (ip), vehicle: other) 100 % of control.
As for `CN=c1ccc2nc3ccc(N)cc3sc-2c1`, the T/C (dose: 50.0 mg/kg/injection, schedule: Q01DX005 (ip), vehicle: saline with Tween-80) was 103 % of control.
With `CC(=O)N1CCCC1=O`, the T/C is 95 % of control under setting [3]; 100 % of control under setting [4]; 86 % of control under setting [8]; 100 % of control (dose: 200.0 mg/kg/injection, schedule: Q04DX003 (ip), vehicle: Klucel (hydroxypropylcellulose) (HPC)); 100 % of control under setting [5].
With `c1cc[c]([Sn]([c]2ccccc2)([c]2ccccc2)[n]2cnc3ccccc32)cc1`, the T/C was 90 % of control (dose: 0.1 mg/kg/injection, schedule: Q01DX009 (ip), vehicle: Klucel (hydroxypropylcellulose) (HPC)); 90 % of control (dose: 0.21 mg/kg/injection, schedule: Q01DX009 (ip), vehicle: Klucel (hydroxypropylcellulose) (HPC)); 90 % of control (dose: 0.43 mg/kg/injection, schedule: Q01DX009 (ip), vehicle: Klucel (hydroxypropylcellulose) (HPC)); 90 % of control (dose: 0.87 mg/kg/injection, schedule: Q01DX009 (ip), vehicle: Klucel (hydroxypropylcellulose) (HPC)); 115 % of control (dose: 7.0 mg/kg/injection, schedule: Q01DX009 (ip), vehicle: Klucel (hydroxypropylcellulose) (HPC)); 100 % of control (dose: 18.0 mg/kg/injection, schedule: Q04DX003 (ip), vehicle: Klucel (hydroxypropylcellulose) (HPC)). The T/C (dose: 28.0 mg/kg/injection, schedule: Q04DX003 (ip), vehicle: Klucel (hydroxypropylcellulose) (HPC)) is 86 % of control.
On to `II`, for which the T/C reads like this: (dose: 12.0 mg/kg/injection, schedule: Q01DX010 (ip), vehicle: acetone) 114 % of control; (dose: 25.0 mg/kg/injection, schedule: Q01DX010 (ip), vehicle: acetone) 96 % of control; (dose: 50.0 mg/kg/injection, schedule: Q01DX010 (ip), vehicle: acetone) 110 % of control.
For the molecule `FC(F)(F)c1ccc2c(c1)N(CCCN(CCCl)CCCl)c1ccccc1S2`, the T/C was 112 % of control (dose: 3.1 mg/kg/injection, schedule: Q04DX003 (ip), vehicle: saline with Tween-80); 122 % of control (dose: 6.25 mg/kg/injection, schedule: Q04DX003 (ip), vehicle: saline with Tween-80); 119 % of control under setting [7].
For the molecule `Nc1c(Br)cc(Br)c2ccccc12`, the T/C runs as follows: under setting [3], 95 % of control; under setting [8], 113 % of control; (dose: 400.0 mg/kg/injection, schedule: Q01DX009 (ip), vehicle: Klucel (hydroxypropylcellulose) (HPC)) 109 % of control.
